Literature values as cited in patent US20030215513A1, “Method for releasing nanosized particles of an active substance from a diffusion-controlled pharmaceutical composition for oral use” (priority 2002, published 2003).
Read-outs that look alike come from different tables or passages of the source.

Compound: OC[C@@H](O)[C@@H](O)[C@H](O)[C@@H](O)CO [sorbitol]
- saturated concentration (at 25° C.): about 66%

Compound: OC[C@@H](O)[C@@H](O)[C@H](O)[C@H](O)CO [mannitol]
- saturated concentration (at 37° C.): about 17%
